Results on six molecules are retold here after patent publication US9249125B2, “Pyrazole derivatives as p38 MAP inhibitors” (RESPIVERT LIMITED, priority 2012, dated 2016).

For data set [1], the target named is p38 MAPKα (Homo sapiens (Human), UniProt Q16539). Kind of data set: p38 MAPKα enzyme inhibition (FRET, Z-LYTE). The data set is classed as biochemical. The protocol: (§1) The enzyme inhibitory activities of compounds disclosed herein are determined by FRET using synthetic peptides labelled with both donor and acceptor fluorophores (Z-LYTE, Invitrogen Ltd., Paisley, UK).
p38 MAPKα, sequence (Q16539 whole entry, canonical isoform): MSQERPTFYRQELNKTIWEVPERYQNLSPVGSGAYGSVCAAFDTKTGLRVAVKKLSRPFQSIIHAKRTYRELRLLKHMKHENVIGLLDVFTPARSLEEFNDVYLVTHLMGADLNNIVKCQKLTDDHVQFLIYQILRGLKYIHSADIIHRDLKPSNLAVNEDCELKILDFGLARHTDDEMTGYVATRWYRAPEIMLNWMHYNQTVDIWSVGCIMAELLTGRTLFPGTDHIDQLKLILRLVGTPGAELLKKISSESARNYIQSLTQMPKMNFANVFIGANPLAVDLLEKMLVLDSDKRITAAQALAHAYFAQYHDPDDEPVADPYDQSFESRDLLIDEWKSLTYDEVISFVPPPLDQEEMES
The inhibitory activities of test compounds against the p38 MAPKα isoform (MAPK14: Invitrogen), are evaluated indirectly by determining the level of activation/phosphorylation of the down-stream molecule, MAPKAP-K2. The p38 MAPKα protein (80 ng/mL, 2.5 μL) is mixed with the test compound (2.5 μL of either 4 μg/mL, 0.4 μg/mL, 0.04 μg/mL or 0.004 μg/mL) for 2 hr at RT. […] The mixture is incubated for 1 hr at RT. Development reagent (protease, 5 μL) is added for 1 hr prior to detection in a fluorescence microplate reader (Varioskan® Flash, ThermoFisher Scientific).
(§2) In all cases, the site-specific protease cleaves non-phosphorylated peptide only and eliminates the FRET signal. Phosphorylation levels of each reaction are calculated using the ratio of coumarin emission (donor) over fluorescein emission (acceptor), for which low ratios indicate high phosphorylation and high ratios indicate low phosphorylation levels.

Data set [2] relates to LPS-induced IL-8 release in d-U937 cells. Kind of data set: LPS-induced IL-8 release in d-U937 cells. The data set is classed as cell-based. Particulars: Homo sapiens, dU937, read-out: LPS Induced Release of Cytokine in d-937 Cells IL-8 IC50. How it is done:
U937 cells, a human monocytic cell line, are differentiated into macrophage-type cells by incubation with PMA (100 ng/mL) for 48 to 72 hr. Cells are pre-incubated with final concentrations of test compound for 2 hr and are then stimulated with LPS (0.1 μg/mL) (from E. coli: O111:B4, Sigma) for 4 hr. The supernatant is collected for determination of TNFα and IL-8 concentrations by sandwich ELISA (Duo-set, R&D systems). […] The relative 50% effective concentration (REC50) is determined from the resultant concentration-response curve. The inhibition of IL-8 production is calculated at each concentration of test compound by comparison with vehicle control. […] (b) LPS-Induced TNFα/IL-8 Release in PBMC Cells

In data set [3] the test system is d-U937 cells. Briefly: Cell viability: MTT assay. Particulars: 1 μg/mL. The data set is classed as cell-based, human. The protocol: Differentiated U937 cells are pre-incubated with each test compound (final concentration 1 μg/mL or 10 μg/mL in 200 μL media indicated below) under two protocols: the first for 4 hr in 5% FCS RPMI1640 media and the second in 10% FCS RPMI1640 media for 24 h. The supernatant is replaced with new media (200 μL) and MTT stock solution (10 μL, 5 mg/mL) is added to each well. After incubation for 1 hr the media are removed, DMSO (200 μL) is added to each well and the plates are shaken lightly for 1 hr prior to reading the absorbance at 550 nm. The percentage loss of cell viability is calculated for each well relative to vehicle (0.5% DMSO) treatment. Consequently an apparent increase in cell viability for drug treatment relative to vehicle is tabulated as a negative percentage.
(In general: Formazan colour is commonly taken as a measure of viable cells.)

Data set [4] concerns the target cSrc (Homo sapiens (Human), UniProt P12931). Briefly: c-Src enzyme inhibition (FRET, Z-LYTE). In kind it is biochemical. How it is done: as §1
(§3) The relevant enzyme (3000 ng/mL or 2000 ng/mL respectively, 2.5 μL) is incubated with the test compound (either 4 μg/mL, 0.4 μg/mL, 0.04 μg/mL, or 0.004 μg/mL, 2.5 μL each) for 2 hr at RT. The FRET peptides (8 μM, 2.5 μL), and appropriate ATP solutions (2.5 μL, 800 μM for c-Src, and 60 μM ATP for Syk) are then added to the enzymes/compound mixtures and incubated for 1 hr. Development reagent (protease, 5 μL) is added for 1 hr prior to detection in a fluorescence microplate reader (Varioskan® Flash, ThermoFisher Scientific).
as §2

The subject of data set [5] is Poly I:C-induced ICAM-1 expression in BEAS2B cells. Kind of data set: Poly I:C-induced ICAM-1 expression in BEAS2B cells. The settings on record: Homo sapiens, BEAS-2B, read-out: Poly IC induced ICAM1 in BEAS2B IC50. The data set is classed as cell-based. How it is done:
Poly I:C is used in these studies as a simple, RNA virus mimic. Poly I:C-Oligofectamine mixture (1 μg/mL Poly I:C, ±2% Oligofectamine, 25 uL) (Invivogen Ltd., San Diego, Calif., and Invitrogen, Carlsbad, Calif., respectively) is transfected into BEAS2B cells (human bronchial epithelial cells, ATCC). Cells are pre-incubated with final concentrations of test compounds for 2 hr and the level of ICAM1 expression on the cell surface is determined by cell-based ELISA. At a time point 18 hr after poly I:C transfection, cells are fixed with 4% formaldehyde in PBS (100 μL) and then endogenous peroxidase is quenched by the addition of washing buffer (100 μL, 0.05% Tween in PBS: PBS-Tween) containing 0.1% sodium azide and 1% hydrogen peroxide. Cells are washed with wash-buffer (3×200 μL). and after blocking the wells with 5% milk in PBS-Tween (100 μL) for 1 hr, the cells are incubated with anti-human ICAM-1 antibody (50 μL) (Cell Signaling Technology, Danvers, Mass.) in 1% BSA PBS overnight at 4° C.
The cells are washed with PBS-Tween (3×200 μL) and incubated with the secondary antibody (100 μL) (HRP-conjugated anti-rabbit IgG, Dako Ltd., Glostrup, Denmark). The cells are then incubated with of substrate (50 μL) for 2-20 min, followed by the addition of stop solution (50 μL, 1N H2SO4). The ICAM-1 signal is detected by reading and reading the absorbance at 450 nm against a reference wavelength of 655 nm using a spectrophotometer. The cells are then washed with PBS-Tween (3×200 μL) and total cell numbers in each well are determined by reading absorbance at 595 nm after Crystal Violet staining (50 μL of a 2% solution in PBS) and elution by 1% SDS solution (100 μL) in distilled water. The measured OD 450-655 readings are corrected for cell number by dividing with the OD595 reading in each well.

Data set [6] addresses Syk (Homo sapiens (Human), UniProt P43405). Briefly: Syk enzyme inhibition (FRET, Z-LYTE). The data set is classed as biochemical. How it is done:
as §1, §3, §2

Data set [7] addresses GSK3α (Homo sapiens (Human), UniProt P49840). Kind of data set: GSK 3α enzyme inhibition (FRET, Z-LYTE). In kind it is biochemical. How it is done:
as §1
The inhibitory activities of compounds of the invention against the GSK 3α enzyme isoform (Invitrogen), are evaluated by determining the level of activation/phosphorylation of the target peptide. The GSK3-α protein (500 ng/mL, 2.5 μL) is mixed with the test compound (2.5 μL at either 4 μg/mL, 0.4 μg/mL, 0.04 μg/mL, or 0.004 μg/mL) for 2 hr at RT. The FRET peptide (8 μM, 2.5 μL), which is a phosphorylation target for GSK3α, and ATP (40 μM, 2.5 μL) are then added to the enzyme/compound mixture and the resulting mixture incubated for 1 hr. Development reagent (protease, 5 μL) is added for 1 hr prior to detection in a fluorescence microplate reader (Varioskan® Flash, ThermoFisher Scientific).
as §2

Where only a bound is given, the exact number is not on record here.

GSK3α, sequence (P49840 whole entry): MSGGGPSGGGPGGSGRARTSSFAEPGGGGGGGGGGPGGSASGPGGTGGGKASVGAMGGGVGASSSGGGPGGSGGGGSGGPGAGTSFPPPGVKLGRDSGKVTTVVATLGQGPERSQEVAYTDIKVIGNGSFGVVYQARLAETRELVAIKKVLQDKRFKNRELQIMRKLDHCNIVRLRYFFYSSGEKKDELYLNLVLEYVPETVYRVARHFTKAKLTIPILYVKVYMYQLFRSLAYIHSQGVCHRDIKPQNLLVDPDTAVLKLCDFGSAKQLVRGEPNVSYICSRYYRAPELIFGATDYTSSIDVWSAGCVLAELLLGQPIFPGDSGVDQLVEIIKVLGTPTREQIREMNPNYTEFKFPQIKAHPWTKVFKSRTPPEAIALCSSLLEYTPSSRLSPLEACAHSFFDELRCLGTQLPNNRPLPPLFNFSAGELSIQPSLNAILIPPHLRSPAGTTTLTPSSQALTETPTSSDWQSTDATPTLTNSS
cSrc, sequence (P12931 whole entry, looked up): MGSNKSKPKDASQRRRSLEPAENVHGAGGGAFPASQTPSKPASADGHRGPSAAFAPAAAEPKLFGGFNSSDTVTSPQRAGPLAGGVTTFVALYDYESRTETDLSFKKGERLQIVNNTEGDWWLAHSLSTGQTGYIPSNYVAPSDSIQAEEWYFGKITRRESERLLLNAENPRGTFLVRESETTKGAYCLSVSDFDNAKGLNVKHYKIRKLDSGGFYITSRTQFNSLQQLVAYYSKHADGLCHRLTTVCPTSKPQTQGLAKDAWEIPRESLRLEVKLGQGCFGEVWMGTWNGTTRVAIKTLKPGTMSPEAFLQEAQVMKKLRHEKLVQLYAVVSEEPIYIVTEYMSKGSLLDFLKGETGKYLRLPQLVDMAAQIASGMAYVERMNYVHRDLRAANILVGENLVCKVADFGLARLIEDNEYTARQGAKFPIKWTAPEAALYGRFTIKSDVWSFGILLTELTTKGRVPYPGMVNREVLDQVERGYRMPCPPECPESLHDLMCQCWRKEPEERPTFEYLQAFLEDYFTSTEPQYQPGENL

As to `Cc1cc(Nc2nccc(Oc3ccc(NC(=O)Nc4cc(C(C)(C)C)nn4-c4ccc(OCCN5CCOCC5)cc4)c4ccccc34)n2)cc2cn[nH]c12` [Example 73, 1-(3-(tert-butyl)-1-(4-(2-morpholinoethoxy)phenyl)-1H-pyrazol-5-yl)-3-(4-((2-((7-methyl-1H-indazol-5-yl)amino)pyrimidin-4-yl)oxy)naphthalen-1-yl)urea], the IC50 (in general, the midpoint of a concentration-inhibition curve) was determined as 69 nM in data set [1]; 2.6 nM in data set [2]; 5 nM in data set [4]; 2.2 nM in data set [5]; 4 nM in data set [6]; 1800 nM in data set [7]. Besides, the “MTT Assay Cell viability at time point in d-U937 cells 4 h” value in data set [3] was “−ve (−ve and +ve indicate that the value is below and above respectively, the no significant effect threshold, defined as 30% inhibition at 1 μg/mL at the time point indicated.)”. Further, in data set [3], the “MTT Assay Cell viability at time point in d-U937 cells 24 h” value is “−ve (−ve and +ve indicate that the value is below and above respectively, the no significant effect threshold, defined as 30% inhibition at 1 μg/mL at the time point indicated.)”.

As for `COc1ccc(-n2nc(C3CCOC3)cc2NC(=O)Nc2ccc(Oc3ccnc(Nc4ccc5[nH]ncc5c4)n3)c3ccccc23)cc1` (stereo not shown) [Example 8, 1-(4-((2-((1H-Indazol-5-yl)amino)pyrimidin-4-yl)oxy)naphthalen-1-yl)-3-(1-(4-methoxyphenyl)-3-(tetrahydrofuran-3-yl)-1H-pyrazol-5-yl)urea], the half-maximal inhibitory concentration (IC50) in data set [1] worked out at 7 nM; in data set [2], 3.6 nM; in data set [4] it was 2 nM; in data set [5], 16.8 nM; in data set [6], 8 nM; in data set [7], 837 nM. In addition, the “MTT Assay Cell viability at time point in d-U937 cells 4 h” value in data set [3] is “−ve (−ve and +ve indicate that the value is below and above respectively, the no significant effect threshold, defined as 30% inhibition at 1 μg/mL at the time point indicated.)”. For the same molecule, the “MTT Assay Cell viability at time point in d-U937 cells 24 h” value in data set [3] is “−ve (−ve and +ve indicate that the value is below and above respectively, the no significant effect threshold, defined as 30% inhibition at 1 μg/mL at the time point indicated.)”.

Regarding `Cc1cc(Nc2cc(Oc3ccc(NC(=O)Nc4cc(C(C)(C)C)nn4-c4ccc(OCCN(C)C)cc4)c4ccccc34)ccn2)cc2cn[nH]c12` [Example 58], the IC50 in data set [1] is less than 1 nM; in data set [4], less than 1 nM; in data set [5] it was 8.3 nM; in data set [7] it was 1260 nM. Moreover, in data set [3], the “MTT Assay Cell viability at time point in d-U937 cells 4 h” value is “−ve (−ve and +ve indicate that the value is below and above respectively, the no significant effect threshold, defined as 30% inhibition at 1 μg/mL at the time point indicated.)”. In addition, the “MTT Assay Cell viability at time point in d-U937 cells 24 h” value in data set [3] is “−ve (−ve and +ve indicate that the value is below and above respectively, the no significant effect threshold, defined as 30% inhibition at 1 μg/mL at the time point indicated.)”.

For the molecule `Cc1cc(Nc2cc(Oc3ccc(NC(=O)Nc4cc(C(C)(C)C)nn4-c4ccc(OCCN5CCOCC5)cc4)c4ccccc34)ccn2)cc2cn[nH]c12` [Example 68], the IC50 in data set [1] was 40 nM; in data set [4], 3 nM; in data set [5], 7.6 nM; in data set [6], less than 1 nM; in data set [7], 3040 nM. For the same molecule, the “MTT Assay Cell viability at time point in d-U937 cells 4 h” value in data set [3] was “−ve (−ve and +ve indicate that the value is below and above respectively, the no significant effect threshold, defined as 30% inhibition at 1 μg/mL at the time point indicated.)”. Also, the “MTT Assay Cell viability at time point in d-U937 cells 24 h” value in data set [3] is “−ve (−ve and +ve indicate that the value is below and above respectively, the no significant effect threshold, defined as 30% inhibition at 1 μg/mL at the time point indicated.)”.

Take `CC(C)(C)c1cc(NC(=O)Nc2ccc(Oc3ccnc(Nc4ccc5[nH]ncc5c4)c3)c3ccccc23)n(-c2cccc(OCCN3CCOCC3)c2)n1` [Example 52]: the IC50 in data set [1] came to 22 nM; in data set [4] it was 3 nM; in data set [5] it was 10.2 nM; in data set [6], 18 nM; in data set [7], 4970 nM. In data set [3], the “MTT Assay Cell viability at time point in d-U937 cells 4 h” value was “−ve (−ve and +ve indicate that the value is below and above respectively, the no significant effect threshold, defined as 30% inhibition at 1 μg/mL at the time point indicated.)”. Besides, the “MTT Assay Cell viability at time point in d-U937 cells 24 h” value in data set [3] is “−ve (−ve and +ve indicate that the value is below and above respectively, the no significant effect threshold, defined as 30% inhibition at 1 μg/mL at the time point indicated.)”.

`CC(C)c1cc(NC(=O)Nc2ccc(Oc3ccnc(Nc4ccc5[nH]ncc5c4)c3)c3ccccc23)n(-c2cccc(OCCN3CCOCC3)c2)n1` [Example 51]: the IC50 in data set [1] was 2 nM; in data set [4], less than 1 nM; in data set [5], 23.8 nM; in data set [6] it was less than 1 nM; in data set [7], 4900 nM. Besides, the “MTT Assay Cell viability at time point in d-U937 cells 4 h” value in data set [3] is “−ve (−ve and +ve indicate that the value is below and above respectively, the no significant effect threshold, defined as 30% inhibition at 1 μg/mL at the time point indicated.)”. The “MTT Assay Cell viability at time point in d-U937 cells 24 h” value in data set [3] is “−ve (−ve and +ve indicate that the value is below and above respectively, the no significant effect threshold, defined as 30% inhibition at 1 μg/mL at the time point indicated.)”.
